Results taken from patent US8546383B2, “Chiral fused [1,2]imidazo[4,5-c] ring compounds” (3M Innovative Properties Company, priority 2004, dated 2013).

`c1ccc2c(c1)ncc1nc3n(c12)[C@@H](C1CCOCC1)COC3` [Example 42, (11S)-11-Tetrahydro-2H-pyran-4-yl-10,11-dihydro-8H-[1,4]oxazino[4′,3′:1,2]imidazo[4,5-c]quinoline] showed a melting point of 234 to 237 °C. `Nc1nc2ccccc2c2c1nc1n2[C@@H](C2CCOCC2)COC1` [Example 43, (11S)-11-Tetrahydro-2H-pyran-4-yl-10,11-dihydro-8H-[1,4]oxazino[4′,3′:1,2]imidazo[4,5-c]quinolin-6-amine] showed a melting point of 240.4 to 243.4 °C. `Cc1nc(N)c2nc3n(c2c1C)[C@@H](C)COC3` [Example 44, (4S)-4,6,7-Trimethyl-3,4-dihydro-1H-pyrido[3′,4′:4,5]imidazo[2,1-c][1,4]oxazin-9-amine] showed a melting point of 264 to 267 °C. With `Nc1nc2ccccc2c2c1nc1n2[C@@H](COCc2ccc(F)cc2)COC1` [Example 45, (11S)-11-{[(4-Fluorobenzyl)oxy]methyl}-10,11-dihydro-8H-[1,4]oxazino[4′,3′:1,2]imidazo[4,5-c]quinolin-6-amine] the melting point was 134 to 137 °C. `Nc1nc2ccccc2c2c1nc1n2[C@@H](Cc2ccc(F)cc2)COC1` [Example 46, (11S)-11-(4-Fluorobenzyl)-10,11-dihydro-8H-[1,4]oxazino[4′,3′:1,2]imidazo[4,5-c]quinolin-6-amine] showed a melting point of 170 to 172 °C. For `Nc1nc2ccccc2c2c1nc1n2[C@@H](C2CCCCC2)COC1` [Example 47, (11S)-11-Cyclohexyl-10,11-dihydro-8H-[1,4]oxazino[4′,3′:1,2]imidazo[4,5-c]quinolin-6-amine], the melting point was 228 to 230 °C. Compound `COc1ccc(C[C@H]2COCc3nc4c(N)nc5ccccc5c4n32)cc1` [Example 49, (11S)-11-(4-Methoxybenzyl)-10,11-dihydro-8H-[1,4]oxazino[4′,3′:1,2]imidazo[4,5-c]quinolin-6-amine] has a melting point of 115 to 130 °C. Compound `Nc1nc2ccccc2c2c1nc1n2[C@@H](c2cc(-c3ccc(F)cc3)no2)COC1` [Example 50, (11R)-11-[3-(4-Fluorophenyl)isoxazol-5-yl]-10,11-dihydro-8H-[1,4]oxazino[4′,3′:1,2]imidazo[4,5-c]quinolin-6-amine] has a melting point of 261 to 262 °C. Compound `C#CCOc1ccc2nc(N)c3nc4n(c3c2c1)[C@@H](C)COC4` [Example 51, (11S)-11-Methyl-2-(prop-2-ynyloxy)-10,11-dihydro-8H-[1,4]oxazino[4′,3′:1,2]imidazo[4,5-c]quinolin-6-amine] has a melting point of 184 to 186 °C. In the case of `Cc1nc(COc2ccc3nc(N)c4nc5n(c4c3c2)[C@@H](C)COC5)cs1` [Example 52, (11S)-11-Methyl-2-[(2-methyl-1,3-thiazol-4-yl)methoxy]-10,11-dihydro-8H-[1,4]oxazino[4′,3′:1,2]imidazo[4,5-c]quinolin-6-amine], the melting point is reported as 105 to 107 °C. In the case of `C[C@H]1COCc2nc3c(N)nc4ccc(OC(=O)N5CCCC5)cc4c3n21` [Example 53, (11S)-6-Amino-11-methyl-10,11-dihydro-8H-[1,4]oxazino[4′,3′:1,2]imidazo[4,5-c]quinolin-2-ylpyrrolidine-1-carboxylate], the melting point is reported as 218 to 219 °C. With `C[C@H]1COCc2nc3c(N)nc4ccc(OCc5cscn5)cc4c3n21` [Example 54, (11S)-11-Methyl-2-(1,3-thiazol-4-ylmethoxy)-10,11-dihydro-8H-[1,4]oxazino[4′,3′:1,2]imidazo[4,5-c]quinolin-6-amine] the melting point was 240 to 242 °C. In the case of `C[C@H]1COCc2nc3c(N)nc4ccc(OCC(=O)N5CCOCC5)cc4c3n21` [Example 55, (11S)-11-Methyl-2-(2-morpholin-4-yl-2-oxoethoxy)-10,11-dihydro-8H-[1,4]oxazino[4′,3′:1,2]imidazo[4,5-c]quinolin-6-amine], the melting point is reported as 226 to 228 °C. Work on `C[C@H]1COCc2nc3c(N)nc4ccc(OCCN5CCOCC5)cc4c3n21` [Example 56, (11S)-11-Methyl-2-(2-morpholin-4-ylethoxy)-10,11-dihydro-8H-[1,4]oxazino[4′,3′:1,2]imidazo[4,5-c]quinolin-6-amine] yielded a melting point of 186 to 188 °C. Work on `CCOc1ccc2nc(N)c3nc4n(c3c2c1)[C@@H](C)COC4` [Example 57, (11S)-2-Ethoxy-11-methyl-10,11-dihydro-8H-[1,4]oxazino[4′,3′:1,2]imidazo[4,5-c]quinolin-6-amine] yielded a melting point of 187 to 188 °C. With `CC(C)[C@H]1COCc2nc3c(N)nc4cc(OCC(=O)N5CCOCC5)ccc4c3n21` [Example 58, (11S)-11-Isopropyl-3-(2-morpholin-4-yl-2-oxoethoxy)-10,11-dihydro-8H-[1,4]oxazino[4′,3′:1,2]imidazo[4,5-c]quinolin-6-amine] the melting point was 137 to 139 °C. For `CC(C)[C@H]1COCc2nc3c(N)nc4cc(OCCN5CCOCC5)ccc4c3n21` [Example 59, (11S)-11-Isopropyl-3-(2-morpholin-4-ylethoxy)-10,11-dihydro-8H-[1,4]oxazino[4′,3′:1,2]imidazo[4,5-c]quinolin-6-amine], the melting point was 194 to 195 °C. `C[C@H]1COCc2nc3c(N)nc4cc(CCS(C)(=O)=O)ccc4c3n21` [Example 61, (11S)-11-Methyl-3-[2-(methylsulfonyl)ethyl]-10,11-dihydro-8H-[1,4]oxazino[4′,3′:1,2]imidazo[4,5-c]quinolin-6-amine] showed a melting point of 205 to 206 °C. `C[C@H]1COCc2nc3c(N)nc4cc(/C=C/C(=O)N5CCOCC5)ccc4c3n21` [Example 62, (11S)-11-Methyl-3-[(1E)-3-morpholin-4-yl-3-oxoprop-1-enyl]-10,11-dihydro-8H-[1,4]oxazino[4′,3′:1,2]imidazo[4,5-c]quinolin-6-amine] gave a melting point of over 250 °C. Work on `C[C@H]1COCc2nc3c(N)nc4cc(CCC(=O)N5CCOCC5)ccc4c3n21` [Example 63, (11S)-11-Methyl-3-(3-morpholin-4-yl-3-oxopropyl)-10,11-dihydro-8H-[1,4]oxazino[4′,3′:1,2]imidazo[4,5-c]quinolin-6-amine] yielded a melting point of 245 to 247 °C. Compound `C[C@H]1COCc2nc3c(N)nc4cc(CCC(=O)N(C)C)ccc4c3n21` [Example 64, 3-[(11S)-6-Amino-11-methyl-10,11-dihydro-8H-[1,4]oxazino[4′,3′:1,2]imidazo[4,5-c]quinolin-3-yl]-N,N-dimethylpropanamide] has a melting point of 235 to 237 °C.
